Experimental data from patent publication US20060069079A1, “Stable amorphous cefdinir” (priority 2004, published 2006).

How the values were obtained:
Format in all cases: physicochemical
[1] = HPLC potency of the isolated amorphous material, before and after drying
Method: For High Pressure Liquid Chromatography (HPLC), the sample isolated by evaporating methanol was analyzed by HPLC for potency. […] By careful drying at lower temperatures, the potency loss could be alleviated.
For the HPLC analysis, the sample isolated by evaporating methanol was analyzed by HPLC for potency. […] When the sample was re-analyzed after drying in the TGA at 25° C. or 70° C., the potency remained at 99 wt %. Therefore, the presence of Eudragit EPO improved the stability of the amorphous phase.

[2] = Physical stability of the amorphous material isolated by evaporating a methanolic solution
Text: Amorphous Cefdinir was isolated by evaporating a methanolic solution.
Stable amorphous Cefdinir with Eudragit EPO was made and isolated by evaporating a methanolic solution.
Amorphous cefdinir with PVP was made and isolated by evaporating a methanolic solution.

[3] = Thermogravimetric analysis (TGA), onset of degradation on heating; details: heated at 10° C./min from 25° C.
Method: Thermogravimetric analysis (TGA) was performed in TA Instruments TG2950 (TA Instruments, New Castle, Del.). The samples were scanned at 10° C./minute with a dry nitrogen purge at 60 mL/minute.
For TGA analysis, the sample was heated at 10° C./min from 25° C. to 150° C. The air dried amorphous material contained about 5 wt % residual solvent. Since the TGA data also indicated degradation begins at 90° C., the residual solvent can be removed by holding the sample in the TGA for 1 hour at 25° C. (FIG. 5). At the end of the hour, the weight reached a constant value and the sample had lost 5% of its weight.
For the TGA analysis, the sample was heated at 10° C./min from 25° C. to 150° C. The air dried amorphous material contained some (˜10 wt %) residual methanol (FIG. 10). […] (FIG. 11). At the end of the hour, the weight reached a constant value and the sample had lost 10% of its weight.
For the TGA analysis, the sample was heated at 10° C./min from 25° C. to 200° C. The air dried amorphous material contained some (˜7 wt %) residual methanol. […] (FIG. 16). At the end of the hour, the weight reached a constant value and the sample had lost 7% of its weight.

C=CC1=C(C(=O)O)N2C(=O)C(NC(=O)C(=NO)c3csc(N)n3)[C@H]2SC1 (single isomer, unassigned) [Amorphous Cefdinir, 7-[2-(2-aminothiazol-4-yl)-2-hydroxyiminoacetamide]-3-vinyl-3-cephem-4-carboxylic acid (syn isomer)]
potency by HPLC after drying ([1]; reanalyzed after drying in the TGA at 25° C. or 70° C.): 93% | potency by HPLC ([1]; sample isolated by evaporating methanol, after accounting for residual solvent): 98% | physical stability [2]: physically stable | temperature at which degradation begins (TGA) [3]: 90 °C
